Source: ChEMBL document CHEMBL1151001, “Nonpeptide angiotensin II receptor antagonists: the discovery of DMP 581 and DMP 811” (Bioorg Med Chem Lett, 1994)
Values belong to the compound of their own block, whether it stands above or below them.

Legend:
Rattus norvegicus [1] = organism: Rattus norvegicus; test: Oral antihypertensive potency expressed as effective dose that lowers the mean arterial blood pressure by 30 mm Hg in renal hypertensive rats; assay type: functional
[2] = Oral bioavailability; assay type: ADME, organism-based, Canis lupus familiaris; conditions: dog, in vivo
[3] = Oral bioavailability in dog (dosed as neat powder in hard gelatin capsule); assay type: ADME, organism-based, Canis lupus familiaris; conditions: in vivo
Rattus norvegicus [4] = test: Antihypertensive potency expressed as effective dose (iv) that lowers the mean arterial blood pressure by 30 mm Hg in renal hypertensive rats.; assay type: functional; conditions: Artery

Compound: CCCc1nc(C(C)CC)c(C(=O)O)n1Cc1ccc(-c2ccccc2-c2nn[nH]n2)cc1 (configuration not stated)
- ED30 (Rattus norvegicus [1]): 0.46 mg/kg

Compound: CCCc1nc(CC)c(C(=O)OCOC(=O)C(C)C)n1Cc1ccc(-c2ccccc2-c2nn[nH]n2)cc1
- ED30 (Rattus norvegicus [1]): 0.03 mg/kg

Compound: CCCc1nc(CC)c(C(=O)OCOC(=O)C(C)(C)C)n1Cc1ccc(-c2ccccc2-c2nn[nH]n2)cc1
- ED30 (Rattus norvegicus [1]): 0.03 mg/kg

Compound: CCCc1nc(CC)c(C(=O)OCc2oc(=O)oc2-c2ccccc2)n1Cc1ccc(-c2ccccc2-c2nn[nH]n2)cc1
- ED30 (Rattus norvegicus [1]): 0.3 mg/kg

Compound: CCCc1nc(C(C)CC)c(C=O)n1Cc1ccc(-c2ccccc2-c2nn[nH]n2)cc1 (configuration not stated)
- ED30 (Rattus norvegicus [1]): 0.33 mg/kg

Compound: CCCc1nc(CC)c(C(=O)OCc2oc(=O)oc2C(C)(C)C)n1Cc1ccc(-c2ccccc2-c2nn[nH]n2)cc1
- ED30 (Rattus norvegicus [1]): 0.1 mg/kg

Compound: CCCc1nc(CC)c(C(=O)OC(C)OC(=O)OC(C)(C)C)n1Cc1ccc(-c2ccccc2-c2nn[nH]n2)cc1 (configuration not stated)
- ED30 (Rattus norvegicus [1]): 0.3 mg/kg

Compound: CCCc1nc(CCC)n(Cc2ccc(-c3ccccc3-c3nn[nH]n3)cc2)c1C(=O)O
- ED30 (Rattus norvegicus [1]): 0.63 mg/kg

Compound: CCCc1nc(C)c(C=O)n1Cc1ccc(-c2ccccc2-c2nn[nH]n2)cc1
- ED30 (Rattus norvegicus [1]): 0.1 mg/kg

Compound: CCCc1nc(CC)c(C(=O)OCc2oc(=O)oc2C)n1Cc1ccc(-c2ccccc2-c2nn[nH]n2)cc1
- ED30 (Rattus norvegicus [1]): 0.1 mg/kg

- bioavailability [2]: ~100%
- bioavailability [3]: 70%
Compound: CCCc1nc(CC)c(C=O)n1Cc1ccc(-c2ccccc2-c2nnn[nH]2)cc1
- ED30 (Rattus norvegicus [1]): 0.027 mg/kg
- ED30 (Rattus norvegicus [4]): 0.11 mg/kg

Compound: CCCCc1nc(Cl)c(C(=O)O)n1Cc1ccc(-c2ccccc2-c2nn[nH]n2)cc1 [CARBOXYLIC ACID METABOLITE]
- ED30 (Rattus norvegicus [1]): 0.66 mg/kg
- ED30 (Rattus norvegicus [4]): 0.038 mg/kg

Compound: CCCc1nc(C(C)(C)C)c(C(=O)O)n1Cc1ccc(-c2ccccc2-c2nn[nH]n2)cc1
- ED30 (Rattus norvegicus [1]): 0.35 mg/kg

Compound: CCCc1nc(CCC)n(Cc2ccc(-c3ccccc3-c3nn[nH]n3)cc2)c1C=O
- ED30 (Rattus norvegicus [1]): 0.3 mg/kg

Compound: CCCCc1nc(CCC)n(Cc2ccc(-c3ccccc3-c3nn[nH]n3)cc2)c1C=O
- ED30 (Rattus norvegicus [1]): 1 mg/kg

Compound: CCCCc1nc(Cl)c(CO)n1Cc1ccc(-c2ccccc2-c2nnn[nH]2)cc1 [LOSARTAN]
- ED30 (Rattus norvegicus [1]): 0.59 mg/kg
- ED30 (Rattus norvegicus [4]): 0.8 mg/kg

Compound: CCCc1nc(C(C)(C)C)c(C=O)n1Cc1ccc(-c2ccccc2-c2nn[nH]n2)cc1
- ED30 (Rattus norvegicus [1]): 0.048 mg/kg

Compound: CCCc1nc(CC(C)C)c(C=O)n1Cc1ccc(-c2ccccc2-c2nn[nH]n2)cc1
- ED30 (Rattus norvegicus [1]): 0.29 mg/kg

Compound: CCCc1nc(CC)c(C(=O)OCOC(=O)OC(C)(C)C)n1Cc1ccc(-c2ccccc2-c2nn[nH]n2)cc1
- ED30 (Rattus norvegicus [1]): 0.02 mg/kg

Compound: CCCc1nc(C(C)C)c(C(=O)O)n1Cc1ccc(-c2ccccc2-c2nn[nH]n2)cc1
- ED30 (Rattus norvegicus [1]): 0.11 mg/kg

Compound: CCCc1nc(C)c(C(=O)O)n1Cc1ccc(-c2ccccc2-c2nn[nH]n2)cc1
- ED30 (Rattus norvegicus [1]): 0.19 mg/kg

Compound: CCCCc1nc(CCC)n(Cc2ccc(-c3ccccc3-c3nn[nH]n3)cc2)c1C(=O)O
- ED30 (Rattus norvegicus [1]): 1.3 mg/kg

Compound: CCCc1nc(CC)c(C(=O)OCOC(=O)OC)n1Cc1ccc(-c2ccccc2-c2nn[nH]n2)cc1
- ED30 (Rattus norvegicus [1]): 0.03 mg/kg

- bioavailability [2]: 15%
Compound: CCCc1nc(CC)c(C(=O)O)n1Cc1ccc(-c2ccccc2-c2nnn[nH]2)cc1
- ED30 (Rattus norvegicus [1]): 0.03 mg/kg
- ED30 (Rattus norvegicus [4]): 0.005 mg/kg

- bioavailability [3]: 12%
Compound: CCCc1nc(C(F)(F)C(F)(F)F)c(C(=O)O)n1Cc1ccc(-c2ccccc2-c2nnn[nH]2)cc1
- ED30 (Rattus norvegicus [1]): 0.21 mg/kg
- ED30 (Rattus norvegicus [4]): 0.042 mg/kg

Compound: CCCc1nc(CC)c(C(=O)OC(C)OC(=O)OC)n1Cc1ccc(-c2ccccc2-c2nn[nH]n2)cc1 (configuration not stated)
- ED30 (Rattus norvegicus [1]): 0.02 mg/kg

Compound: CCCc1nc(CC(C)C)c(C(=O)O)n1Cc1ccc(-c2ccccc2-c2nn[nH]n2)cc1
- ED30 (Rattus norvegicus [1]): 0.87 mg/kg

Compound: CCCc1nc(C(C)C)c(C=O)n1Cc1ccc(-c2ccccc2-c2nn[nH]n2)cc1
- ED30 (Rattus norvegicus [1]): 0.13 mg/kg
